Measurements published in publication PMC9227536, “Prediction of Pharmacokinetics of IDP-73152 in Humans Using Physiologically-Based Pharmacokinetics” (Pharmaceutics, 2022).
Like-named read-outs stand apart in the source and are kept apart here.

Experiments:
[1] = Blood partitioning (LC-MS/MS-based depletion method), mouse; type: in vitro ADME; settings: whole blood, mice blood, 0.3, 1, 3 μM, read-out: BP (blood-to-plasma concentration ratio)
Description: (§1) In this study, the partitioning of IDP-73152 in blood samples obtained from mice, rats, dogs, and humans was determined using the LC-MS/MS-based depletion method with slight modifications. DP-73152 was added to an aliquot (1 mL) of blank blood or plasma at a final concentration of 0.3, 1, or 3 μM. The mixture was incubated at 37 °C in a water bath for 60 min. After the incubation, the plasma was separated by centrifugation of the blood samples for 5 min at 10,000× g/4 °C and stored at -80 °C until analysis. The blood-to-plasma concentration ratio (BP) was calculated using the equation:(3) BP=[…], where […] is the concentration of the compound at the corresponding blood concentration in the plasma, and CPL is the concentration from the plasma sample separated from the incubated blood.

[2] = Blood partitioning (LC-MS/MS-based depletion method), human; type: in vitro ADME; settings: whole blood, humans blood, 0.3, 1, 3 μM, read-out: BP (blood-to-plasma concentration ratio)
Description: as §1

[3] = PK study in dogs (intravenous and oral); type: in vivo
Description: The in vivo experimental protocol was approved by the Institutional Animal Care and Use Committee of Research Laboratory at Ildong pharmaceutical Co., Ltd. (Ref. No.: IDL-PDF-001 and 09005-11004). Animals were acclimatized to the laboratory conditions for at least 1 week before the experiments and were kept in the standardized conditions (20–25 °C, 55 ± 5% humidity, and a 12 h light/dark cycle). The animals fasted overnight prior to drug administration, and food was resupplied 4 h post-dose.
Male beagle dogs (body weight 9.55–10.3 kg, Beijing Marshall Biotechnology, Beijing, China) received a single intravenous dose of 10 mg/kg IDP-73152 via the cephalic vein (i.e., the injection volume of 1 mL/kg, IDP-73152 in saline). When necessary, a single dose of IDP-73152 at 20 mg/kg was also orally administered to dogs in the form of hard gelatin capsules. Blood samples were collected from the jugular vein at 0.167, 0.33, 0.5, 1, 2, 4, and 8 h (for intravenous administration study), and 0.167, 0.33, 0.5, 1, 2, 4, 6, and 8 h (for oral administration study) after the administration. Plasma was separated/collected from the blood sample by centrifugation for 5 min at 10,000× g/4 °C and stored at −80 °C until the analysis.
When necessary for a model independent PK analysis, a standard moment analysis was carried out with WinNonlin software using either representative (for the study with mice) or individual (for the study with rats, dogs, and humans) concentration–time profile(s). For the calculation of PBPK models, Berkeley Madonna 8.3.18 (Albany, CA, USA) was used with the fourth-order Runge–Kutta method for numerical integration.

[4] = Tissue distribution at steady state, constant-rate infusion in rats; type: in vivo; settings: for Kp at 10 h: 10 h infusion, read-out: KP,ss
Description: In this study, the extent of tissue distribution of IDP-73152 was also determined in rats. Rats received IDP-73152 at a constant rate of infusion (i.e., the rate of 0.8 mg/h (in 0.6 mL/h)) using a syringe pump (PHD ULTRA, Harvard apparatus, Holliston, MA, USA). The steady state was assumed to have been achieved when IDP-73152 was infused for 10 h (see below). Upon completion of the infusion, the animal was sacrificed, and major tissues (i.e., adipose tissue, brain, heart, kidney, liver, lung, muscle, skin, spleen, and testis) were collected. Assuming the density of tissues to be 1 g/mL, tissue samples were homogenized in twice their volume of phosphate buffered saline using a homogenizer (Ultra Turrax homogenizer, IKA-Werke GmbH & Co. KG, Staufen, Germany). Plasma samples and tissue homogenates were stored at −80 °C until analysis. The tissue-to-plasma concentration ratio at steady state (KP,ss) was then calculated for each tissue using the following equation [23, 24, 25]:(8) KP,ss=Ctissue,ss/Cplasma,ss, where Ctissue,ss and Cplasma,ss represent the concentration of the compound in the tissue and plasma at steady-state.
For the estimation of the volume of the distribution of IDP-73512 in rats, the steady-state volume of distribution (Vss) was calculated using the following equation [30]:(10) Vss=VP+Vrbc×EP+∑VT,i×KP,ss,i, where Vp, Vrbc, and VT,i are the volumes of plasma, red blood cells, and tissues, respectively. The erythrocyte-to-plasma partition coefficient (EP), is calculated by EP=1+(BP−1)/Hematocrit . The KP,ss for each tissue obtained from Equation (8) was applied for Equation (10). For the case of non-eliminating organs, the KP,ss was regarded as the tissue-to-plasma partition coefficient (KP) in PBPK equations (Appendix A). For the case of the liver—i.e., the eliminating organ—the KP,ss (KP,ss,LI) had to be corrected to account for the equilibrium being altered by the elimination. Thus, a PBPK-operative KP for liver (KP,LI) was calculated using the following equation [31]:(11) KP,LI=KP,ss,LI/(1−ER), where ER is the hepatic extraction ratio of the compound (i.e., CLh/(QLI·BP)). In this study, a compartmental absorption and transit (CAT) model consisting of stomach and five intestinal segments was considered for the description of the intestinal absorption kinetics of IDP-73152 in animals and humans. We assumed that the initial compartment denoted the stomach (Equation (12)), and the subsequent three compartments represented the small intestine and two additional compartments for the large intestine (i.e., a total of six compartments, with absorption occurring in the five intestinal compartments) (Equation (13)). The differential equations describing the rate of drug absorption and transit in the gastrointestinal tract can be written as: […]

[5] = test system: vancomycin-resistant Enterococcus faecium; settings: infected mice, twice-a-day dosing; cited from earlier work
[6] = test system: methicilin-resistant Staphylococus aureus; settings: infected mice, twice-a-day dosing; cited from earlier work
[7] = male, beagle, dog, plasma, dogs, oral 20 mg/kg, hard gelatin capsules

Compound CC(C)(C)[C@H](NC(=O)[C@H](CC1CCCC1)CN(O)C=O)C(=O)N1CCC(NCc2cc(F)c(F)cc2F)CC1 [IDP-73152] has a blood plasma ratio at 60 min [1] of 1.31 ± 0.13, a blood plasma ratio at 60 min [2] of 1.24 ± 0.08 and a CLp ([3]; dogs, intravenous 10 mg/kg, 10 mg/kg) of 11.1 ± 4.32 mL/min/kg. For the same compound, the AUC(0-inf) ([3]; male, beagle, dog, plasma, iv, 10 mg/kg) was 16600 ± 5900 ng·h/mL, the clearance ([3]; male, beagle, dog, plasma, iv, 10 mg/kg, dogs, intravenous 10 mg/kg, read-out: CLp (converted)) was 10.3 mL/min/kg and the Vd ([3]; male, beagle, dog, plasma, dogs, intravenous 10 mg/kg, moment analysis, read-out: Vss) was 1.15 ± 0.46 L/kg. The half-life ([3]; male, beagle, dog, plasma, dogs, intravenous 10 mg/kg, read-out: t1/2 (converted)) was 1.18 ± 0.14 h, the bioavailability ([3]; male, beagle, dog, plasma, dogs, oral 20 mg/kg vs intravenous 10 mg/kg, read-out: F (bioavailability)) was 95.5% and the AUC(0-inf) [3, 7] was 31600 ± 5900 ng·h/mL. For the same compound, the Cmax [3, 7] was 10500 ± 2000 ng/mL, the Tmax [3, 7] was 0.777 ± 0.387 h and the half-life ([3]; male, beagle, dog, plasma, dogs, oral 20 mg/kg, hard gelatin capsules, read-out: t1/2 (terminal phase half-life) (converted)) was 1.81 ± 0.04 h. It also gave a Kp at 10 h ([4]; Sprague Dawley, rat, intravenous, 0.8 mg/h, adipose tissue) of 0.853 ± 0.196, a Kp at 10 h ([4]; Sprague Dawley, rat, intravenous, 0.8 mg/h, brain) of 0.0729 ± 0.0167 and a Kp at 10 h ([4]; Sprague Dawley, rat, intravenous, 0.8 mg/h, heart) of 2.15 ± 0.22. For the same compound, the Kp at 10 h ([4]; Sprague Dawley, rat, intravenous, 0.8 mg/h, kidney) was 8.68 ± 1.83, the Kp at 10 h ([4]; Sprague Dawley, rat, intravenous, 0.8 mg/h, liver) was 12.2 ± 3.3 and the Kp at 10 h ([4]; Sprague Dawley, rat, intravenous, 0.8 mg/h, lung) was 7.13 ± 1.28. It also gave a Kp at 10 h ([4]; Sprague Dawley, rat, intravenous, 0.8 mg/h, muscle) of 1.37 ± 0.3, a Kp at 10 h ([4]; Sprague Dawley, rat, intravenous, 0.8 mg/h, skin) of 1.08 ± 0.38 and a Kp at 10 h ([4]; Sprague Dawley, rat, intravenous, 0.8 mg/h, spleen) of 4.82 ± 1.3. The Kp at 10 h ([4]; Sprague Dawley, rat, intravenous, 0.8 mg/h, testis) was 0.338 ± 0.089, the “plasma concentration during infusion” value ([4]; intravenous infusion 0.8 mg/h, 10 h) was 2120 ± 340 ng/mL and the Vd ([4]; male, Sprague Dawley, rat, plasma and tissue homogenates, intravenous, 0.8 mg/h, from KP,ss of ten tissues, read-out: Vss calculated by Equation (10)) was 2.09 L/kg. For the same compound, the concentration at 10 h ([4]; male, Sprague Dawley, rat, plasma, intravenous infusion 0.8 mg/h for 10 h, from CLp, read-out: expected steady-state concentration) was 2120 ± 340 ng/mL, the concentration at 8 h ([4]; male, Sprague Dawley, rat, plasma, intravenous infusion 0.8 mg/h, 8 h, read-out: plasma concentration during infusion) was 2070 ± 360 ng/mL and the concentration at 9 h ([4]; male, Sprague Dawley, rat, plasma, intravenous infusion 0.8 mg/h, 9 h, read-out: plasma concentration during infusion) was 1910 ± 270 ng/mL. The “ED50 (oral dose at which the survival rate was 50%)” value [5] was 13.3 mg/kg and the “ED50 (oral dose at which the survival rate was 50%)” value [6] was 16.6 mg/kg.
